Columns and labels:
S. aureus 1840 = test: Minimal inhibitory concentration (M.I.C.), agar dilution method; assay type: cell-based, Staphylococcus aureus; conditions: TSA, inoculum 10^7 /ml
Excerpt: (§1) (a) Determination of minimal inhibitory concentrations (Tables 1 to 8):
(§2) Procedure: agar dilution method

S. aureus 209P = test: as above; assay type: cell-based, Staphylococcus aureus; conditions: TSA, inoculum 10^7 /ml
Excerpt: as §1, §2

E. coli NIHJ JC-2 = test: as above; assay type: cell-based, Escherichia coli; conditions: TSA, inoculum 10^7 /ml
Excerpt: as §1, §2

E. coli T-7 = test: as above; assay type: cell-based, Escherichia coli; conditions: TSA, inoculum 10^7 /ml
Excerpt: as §1, §2

E. coli 0-111 = test: as above; assay type: cell-based, Escherichia coli; conditions: TSA, inoculum 10^7 /ml
In short: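 MIC against E. coli O-111 was determined by agar dilution.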

K. pneumoniae DT = test: as above; assay type: cell-based, Klebsiella pneumoniae; conditions: TSA, inoculum 10^7 /ml
Excerpt: as §1, §2

K. pneumoniae GN 3835 = test: as above; assay type: cell-based, Klebsiella pneumoniae; conditions: TSA, inoculum 10^7 /ml
Excerpt: as §1, §2

S. marcescens IFO 12648 = test: as above; assay type: cell-based, Serratia marcescens; conditions: TSA, inoculum 10^7 /ml
Excerpt: as §1, §2

S. marcescens TN 24 = test: as above; assay type: cell-based, Serratia marcescens; conditions: TSA, inoculum 10^7 /ml
Excerpt: as §1, §2

P. vulgaris GN 4413 = test: as above; assay type: cell-based, Proteus vulgaris; conditions: TSA, inoculum 10^7 /ml
Excerpt: as §1, §2

P. vulgaris IFO 3988 = test: as above; assay type: cell-based, Proteus vulgaris; conditions: TSA, inoculum 10^7 /ml
Excerpt: as §1, §2

P. mirabilis GN 4359 = test: as above; assay type: cell-based, Proteus mirabilis; conditions: TSA, inoculum 10^7 /ml
Excerpt: as §1, §2

P. morganii IFO 3168 = test: as above; assay type: cell-based, Proteus morganii; conditions: TSA, inoculum 10^7 /ml
Excerpt: as §1, §2

P. rettgeri GN4733 = test: as above; assay type: cell-based, Proteus rettgeri; conditions: TSA, inoculum 10^7 /ml
Excerpt: as §1, §2

P. rettgeri TN 338 = test: as above; assay type: cell-based, Proteus rettgeri; conditions: TSA, inoculum 10^7 /ml
Excerpt: as §1, §2

E. cloacae TN 1282 = test: as above; assay type: cell-based, Enterobacter cloacae; conditions: TSA, inoculum 10^7 /ml
Excerpt: as §1, §2

C. freundii GN 1706 = test: as above; assay type: cell-based, Citrobacter freundii; conditions: TSA, inoculum 10^7 /ml
Excerpt: as §1, §2

C. freundii GN 99 = test: as above; assay type: cell-based, Citrobacter freundii; conditions: TSA, inoculum 10^7 /ml
Excerpt: as §1, §2

Escherichia coli 0-111 = test: Therapeutic effects in infected mice; assay type: in vivo, Male mice ICR/SLC; conditions: Escherichia coli, 0111, sc, 168 h
Experimental: The preliminary therapeutic effects of some cephalosporin derivatives of this invention as determined in infected mice were as follows.
Determination of therapeutic effects in infected mice
Test animals: Male mice ICR/SLC
Each compound was administered to a group of 5 animals.
Route of infection: Intraperitoneally infected with Escherichia coli 0-111
Period of observation: 7 days.
Method of administration:
One mg of each test compound was dissolved in 100 ml of sterile physiological saline and a dilution series of the same solution was prepared. These solutions were respectively injected subcutaneously into mice immediately after infection, in a single dose of 0.2 ml each.

| Compound | minimal inhibitory concentration (M.I.C.) (S. aureus 1840) | minimal inhibitory concentration (M.I.C.) (S. aureus 209P) | minimal inhibitory concentration (M.I.C.) (E. coli NIHJ JC-2) | minimal inhibitory concentration (M.I.C.) (E. coli T-7) | minimal inhibitory concentration (M.I.C.) (E. coli 0-111) | minimal inhibitory concentration (M.I.C.) (K. pneumoniae DT) | minimal inhibitory concentration (M.I.C.) (K. pneumoniae GN 3835) | minimal inhibitory concentration (M.I.C.) (S. marcescens IFO 12648) | minimal inhibitory concentration (M.I.C.) (S. marcescens TN 24) | minimal inhibitory concentration (M.I.C.) (P. vulgaris GN 4413) | minimal inhibitory concentration (M.I.C.) (P. vulgaris IFO 3988) | minimal inhibitory concentration (M.I.C.) (P. mirabilis GN 4359) | minimal inhibitory concentration (M.I.C.) (P. morganii IFO 3168) | minimal inhibitory concentration (M.I.C.) (P. rettgeri GN4733) | minimal inhibitory concentration (M.I.C.) (P. rettgeri TN 338) | minimal inhibitory concentration (M.I.C.) (E. cloacae TN 1282) | minimal inhibitory concentration (M.I.C.) (C. freundii GN 1706) | minimal inhibitory concentration (M.I.C.) (C. freundii GN 99) | ED50 (Escherichia coli 0-111) [mg/kg] |
| --- | --- | --- | --- | --- | --- | --- | --- | --- | --- | --- | --- | --- | --- | --- | --- | --- | --- | --- | --- |
| O=C(Cc1cccs1)N[C@@H]1C(=O)N2C(C(=O)[O-])=C(C[n+]3ccccc3)CS[C@H]12 [Cephaloridine, 7-(2-thienylacetamido)-3-(1-pyridyl)methyl-3-cephem-4-carboxylic acid betaine, reference compound] | 0.39 | 0.05 | 3.13 | > 100 | 1.56 | 1.56 | 12.5 | > 100 | > 100 | > 100 | 6.25 | 6.25 | > 100 | > 100 | 1.56 | > 100 | > 100 | 50 | 2 |
| CCCCNC(=O)O/N=C(\C(=O)NC1C(=O)N2C(C(=O)O)=C(COC(N)=O)CSC12)c1csc(=N)[nH]1 (stereo not drawn) [Example II - 21, sodium 7-[2-(2-imino-4-thiazolin-4-yl)-2-butylcarbamoyloximinoacetamido]-3-carbamoyloxymethyl-3-cephem-4-carboxylate (syn-isomer)] | 3.13 | 1.56 | 0.39 | 3.13 | 0.05 | 0.1 | 0.39 | 6.25 | 25 | 50 | 0.39 | 0.2 | 1.56 | 0.39 | ≤ 0.012 | 25 | 0.78 | 0.39 | 0.1 |
| CNC(=O)O/N=C(\C(=O)NC1C(=O)N2C(C(=O)O)=C(COC(N)=O)CSC12)c1csc(=N)[nH]1 (stereo not drawn) [Example II - 3, sodium 7-[2-(2-imino-4-thiazolin-4-yl)-2-methylcarbamoyloximinoacetamido]-3-carbamoyloxymethyl-3-cephem-4-carboxylate (syn-isomer)] | 3.13 | 3.13 | 0.1 | 0.39 | 0.024 | 0.024 | 0.1 | 3.13 | 6.25 | 50 | 0.05 | 0.05 | 0.78 | 0.1 | ≤ 0.012 | 6.25 | 0.2 | 0.1 | 0.016 |
